IC50 data for 28 molecules are collected here from ChEMBL document CHEMBL4033663, “Design, combinatorial synthesis and biological evaluations of novel 3-amino-1'-((1-aryl-1H-1,2,3-triazol-5-yl)methyl)-2'-oxospiro[benzo[a] pyrano[2,3-c]phenazine-1,3'-indoline]-2-carbonitrile antitumor hybrid molecules” (Eur J Med Chem, 2017).

Bounds are passed on as bounds.

For one test, the system named is A549. The experiment in a line: Antiproliferative activity against human A549 cells after 48 hrs by MTT assay. It is filed as functional, cell-based. To be noted: A549, 48 h.
In another test the test system is L02. Nature of the test: Antiproliferative activity against human L02 cells after 48 hrs by MTT assay. It is filed as cell-based. To be noted: L02, 48 h. On the technique in general: Tetrazolium dyes change colour on reduction, which living cells bring about.
The test system of a further test is MCF7. Nature of the test: Antiproliferative activity against human MCF7 cells after 48 hrs by MTT assay. It is filed as functional, cell-based. To be noted: MCF7, 48 h.
Another test concerns HCT-116. Nature of the test: Antiproliferative activity against human HCT116 cells after 48 hrs by MTT assay. Type of test: functional, cell-based. To be noted: HCT-116, 48 h.
The subject of a further test is HUVEC. Nature of the test: Antiproliferative activity against human HUVEC cells after 48 hrs by MTT assay. It is filed as cell-based.
The next test relates to HepG2. The experiment in a line: Antiproliferative activity against human HepG2 cells after 48 hrs by MTT assay. Type of test: functional, cell-based. As to conditions: HepG2, 48 h.

For `N#CC1=C(N)Oc2c(c3nc4ccccc4nc3c3ccccc23)C12C(=O)N(Cc1cnnn1-c1ccc([N+](=O)[O-])cc1)c1ccccc12` (stereo not drawn), the concentration for half-maximal inhibition (IC50) in the test with A549, in the test with L02, in the test on MCF7, in the test on HCT-116, in the test with HUVEC and in the test with HepG2 was more than 50 µM in each case.
As for `Cc1cc(C)c(-n2nncc2CN2C(=O)C3(C(C#N)=C(N)Oc4c(N)cc5nc6ccccc6nc5c43)c3ccccc32)c(C)c1` (stereo not drawn), the IC50 with A549 is 12.7 µM; in the test on L02 it was more than 50 µM; with MCF7, more than 50 µM; in the test on HCT-116, more than 50 µM; in the test with HUVEC, more than 50 µM; in the test on HepG2, 48.1 µM.
For the molecule `Cc1cccc(-n2nncc2CN2C(=O)C3(C(C#N)=C(N)Oc4c(N)cc5nc6ccccc6nc5c43)c3ccccc32)c1` (stereo not drawn), the IC50 in the test on A549 was 12.3 µM; in the test on L02, more than 50 µM; with MCF7, more than 50 µM; in the test with HCT-116, more than 50 µM; in the test on HUVEC, more than 50 µM; in the test with HepG2, more than 50 µM.
Take `N#CC1=C(N)Oc2c(c3nc4ccccc4nc3c3ccccc23)C12C(=O)N(Cc1cnnn1-c1ccc(Cl)cc1)c1ccccc12` (stereo not drawn): the IC50 with A549, in the test with L02, with MCF7, in the test on HCT-116, with HUVEC and in the test on HepG2 was more than 50 µM each time.
Take `N#CC1=C(N)Oc2c(c3nc4ccccc4nc3c3ccccc23)C12C(=O)N(Cc1cnnn1-c1ccc(N)cc1)c1ccccc12` (stereo not drawn): the half-inhibitory concentration (IC50) with A549 was more than 50 µM; in the test on L02 it was more than 50 µM; in the test with MCF7 it was more than 50 µM; with HCT-116 it was 45.2 µM; in the test with HUVEC, more than 50 µM; in the test on HepG2, more than 50 µM.
For `Cc1ccc(C)c(-n2nncc2CN2C(=O)C3(C(C#N)=C(N)Oc4c3c3nc5ccccc5nc3c3ccccc43)c3ccccc32)c1` (stereo not drawn), the IC50 in the test on A549, in the test on L02, in the test on MCF7, in the test with HCT-116, with HUVEC and in the test on HepG2 was more than 50 µM in each case.
Regarding `N#CC1=C(N)Oc2c(c3nc4ccccc4nc3c3ccccc23)C12C(=O)N(Cc1cnnn1-c1cccc(S(N)(=O)=O)c1)c1ccccc12` (stereo not drawn), the half-inhibitory concentration (IC50) is 44.2 µM in the test on A549; more than 50 µM in the test on L02; 42.5 µM in the test on MCF7; 11.3 µM in the test with HCT-116; 38.6 µM in the test on HUVEC; 21.5 µM with HepG2.
Regarding `CCOc1ccccc1-n1nncc1CN1C(=O)C2(C(C#N)=C(N)Oc3c2c2nc4ccccc4nc2c2ccccc32)c2ccccc21` (stereo not drawn), the concentration for half-maximal inhibition (IC50) in the test with A549, in the test with L02, in the test on MCF7, in the test on HCT-116, with HUVEC and in the test with HepG2 was more than 50 µM in each case.
With `Cc1ccc(-n2nncc2CN2C(=O)C3(C(C#N)=C(N)Oc4c3c3nc5ccccc5nc3c3ccccc43)c3ccccc32)cc1Cl` (stereo not drawn), the 50% inhibitory concentration (IC50) in the test on A549, in the test on L02, in the test on MCF7, in the test on HCT-116, in the test with HUVEC and in the test with HepG2 was more than 50 µM in each case.
Turning to `N#CC1=C(N)Oc2c(N)cc3nc4ccccc4nc3c2C12C(=O)N(Cc1cnnn1-c1c(Cl)cc(Cl)cc1Cl)c1ccccc12` (stereo not drawn), the IC50 is more than 50 µM in the test on A549; more than 50 µM with L02; 37.8 µM in the test with MCF7; 12.1 µM in the test with HCT-116; 18.3 µM in the test on HUVEC; 37.8 µM with HepG2.
Take `Cc1cc(C)cc(-n2nncc2CN2C(=O)C3(C(C#N)=C(N)Oc4c3c3nc5ccccc5nc3c3ccccc43)c3ccccc32)c1` (stereo not drawn): the concentration for half-maximal inhibition (IC50) with A549, in the test on L02, in the test on MCF7, in the test with HCT-116, with HUVEC and in the test on HepG2 was more than 50 µM throughout.
Turning to `N#CC1=C(N)Oc2c(N)cc3nc4ccccc4nc3c2C12C(=O)N(Cc1cnnn1-c1ccc(Cl)cc1[N+](=O)[O-])c1ccccc12` (stereo not drawn), the IC50 was more than 50 µM in the test with A549; more than 50 µM with L02; more than 50 µM in the test with MCF7; 28.7 µM in the test with HCT-116; more than 50 µM in the test with HUVEC; more than 50 µM with HepG2.
As for `Cc1ccc(-n2nncc2CN2C(=O)C3(C(C#N)=C(N)Oc4c3c3nc5ccccc5nc3c3ccccc43)c3ccccc32)c(C)c1` (stereo not drawn), the IC50 in the test with A549, in the test on L02, in the test on MCF7, in the test on HCT-116, in the test with HUVEC and in the test on HepG2 was more than 50 µM each time.
Take `N#CC1=C(N)Oc2c(N)cc3nc4ccccc4nc3c2C12C(=O)N(Cc1cnnn1-c1cccc(Br)c1)c1ccccc12` (stereo not drawn): the IC50 is 18.9 µM in the test on A549; more than 50 µM with L02; more than 50 µM in the test with MCF7; 26.1 µM with HCT-116; more than 50 µM in the test on HUVEC; more than 50 µM with HepG2.
As for `Cc1ccc(-n2nncc2CN2C(=O)C3(C(C#N)=C(N)Oc4c3c3nc5ccccc5nc3c3ccccc43)c3ccccc32)cc1C` (stereo not drawn), the IC50 in the test on A549, in the test with L02, with MCF7, in the test with HCT-116, in the test on HUVEC and in the test with HepG2 was more than 50 µM throughout.
Turning to `N#CC1=C(N)Oc2c(N)cc3nc4ccccc4nc3c2C12C(=O)N(Cc1cnnn1-c1ccc(F)cc1)c1ccccc12` (stereo not drawn), the half-inhibitory concentration (IC50) with A549, with L02, in the test with MCF7, in the test with HCT-116, in the test with HUVEC and in the test on HepG2 was more than 50 µM in each case.
Regarding `N#CC1=C(N)Oc2c(c3nc4ccccc4nc3c3ccccc23)C12C(=O)N(Cc1cnnn1-c1ccc(F)cc1)c1ccccc12` (stereo not drawn), the IC50 in the test with A549, in the test with L02, with MCF7, in the test with HCT-116, in the test with HUVEC and in the test on HepG2 was more than 50 µM in each case.
As for `N#CC1=C(N)Oc2c(c3nc4ccccc4nc3c3ccccc23)C12C(=O)N(Cc1cnnn1-c1cccc(Cl)c1)c1ccccc12` (stereo not drawn), the half-maximal inhibitory concentration (IC50) was 32.6 µM in the test with A549; 35.2 µM in the test on L02; 43.6 µM with MCF7; more than 50 µM in the test with HCT-116; more than 50 µM with HUVEC; more than 50 µM in the test with HepG2.
For the molecule `CC(=O)Nc1ccc(-n2nncc2CN2C(=O)C3(C(C#N)=C(N)Oc4c3c3nc5ccccc5nc3c3ccccc43)c3ccccc32)cc1` (stereo not drawn), the IC50 in the test with A549, in the test on L02, with MCF7, in the test on HCT-116, in the test with HUVEC and in the test with HepG2 was more than 50 µM each time.
As to `N#CC1=C(N)Oc2c(N)cc3nc4ccccc4nc3c2C12C(=O)N(Cc1cnnn1-c1ccc(F)c(Cl)c1)c1ccccc12` (stereo not drawn), the IC50 is 43.4 µM in the test on A549; more than 50 µM in the test on L02; 17.8 µM in the test on MCF7; more than 50 µM with HCT-116; more than 50 µM with HUVEC; more than 50 µM in the test with HepG2.
As for `N#CC1=C(N)Oc2c(N)cc3nc4ccccc4nc3c2C12C(=O)N(Cc1cnnn1-c1ccccc1Br)c1ccccc12` (stereo not drawn), the IC50 in the test on A549 turned out to be 27.4 µM; with L02 it was 29.2 µM; with MCF7 it was 30.7 µM; in the test with HCT-116 it was 12.4 µM; in the test on HUVEC it was 34.2 µM; in the test with HepG2 it was 38 µM.
Take `COc1ccc(-n2nncc2CN2C(=O)C3(C(C#N)=C(N)Oc4c3c3nc5ccccc5nc3c3ccccc43)c3ccccc32)cc1` (stereo not drawn): the half-inhibitory concentration (IC50) in the test on A549, in the test with L02, with MCF7, with HCT-116, with HUVEC and with HepG2 was more than 50 µM each time.
As for `Cc1ccc(-n2nncc2CN2C(=O)C3(C(C#N)=C(N)Oc4c(N)cc5nc6ccccc6nc5c43)c3ccccc32)cc1Cl` (stereo not drawn), the IC50 in the test on A549 is 11.8 µM; in the test on L02 it was more than 50 µM; in the test on MCF7, more than 50 µM; with HCT-116, more than 50 µM; in the test with HUVEC, more than 50 µM; in the test on HepG2, more than 50 µM.
In the case of `COc1ccc(-n2nncc2CN2C(=O)C3(C(C#N)=C(N)Oc4c(N)cc5nc6ccccc6nc5c43)c3ccccc32)cc1` (stereo not drawn), the IC50 with A549, in the test with L02, in the test on MCF7, in the test on HCT-116, in the test on HUVEC and in the test on HepG2 was more than 50 µM in each case.
Regarding `N#CC1=C(N)Oc2c(N)cc3nc4ccccc4nc3c2C12C(=O)N(Cc1cnnn1-c1cc(Cl)ccc1Cl)c1ccccc12` (stereo not drawn), the 50% inhibitory concentration (IC50) in the test on A549 was 10.9 µM; in the test on L02, more than 50 µM; with MCF7 it was 33.2 µM; in the test with HCT-116 it was more than 50 µM; in the test on HUVEC it was more than 50 µM; in the test with HepG2, 33.1 µM.
As for `Cc1cccc(-n2nncc2CN2C(=O)C3(C(C#N)=C(N)Oc4c3c3nc5ccccc5nc3c3ccccc43)c3ccccc32)c1` (stereo not drawn), the half-inhibitory concentration (IC50) in the test on A549 is 39.6 µM; with L02, more than 50 µM; with MCF7, more than 50 µM; in the test on HCT-116, more than 50 µM; in the test on HUVEC it was more than 50 µM; with HepG2 it was more than 50 µM.
In the case of `CCc1cccc(CC)c1-n1nncc1CN1C(=O)C2(C(C#N)=C(N)Oc3c(N)cc4nc5ccccc5nc4c32)c2ccccc21` (stereo not drawn), the 50% inhibitory concentration (IC50) in the test on A549 was more than 50 µM; in the test on L02, more than 50 µM; with MCF7, more than 50 µM; with HCT-116, 37.6 µM; with HUVEC, more than 50 µM; in the test on HepG2, 16.5 µM.
As for `Cc1cc(C)cc(-n2nncc2CN2C(=O)C3(C(C#N)=C(N)Oc4c(N)cc5nc6ccccc6nc5c43)c3ccccc32)c1` (stereo not drawn), the IC50 in the test on A549 was 31.2 µM; in the test with L02, more than 50 µM; with MCF7, more than 50 µM; with HCT-116, more than 50 µM; in the test on HUVEC, more than 50 µM; with HepG2, more than 50 µM.

In general, IC50 refers to the concentration needed to halve the response being measured. A higher IC50 goes with weaker potency.
